Test results taken from patent US20240165282A1, “CONFORMATIONAL CONSTRAINED SOMATOSTATIN RECEPTOR 3 PEPTIDE LIGANDS AND THEIR CONJUGATES AND USES THEREOF” (STARGET PHARMA LTD., priority 2021, published 2024).
*1 amine or outer side, *2 acyl side, *3 side chain or, on linkers, in order; H or OH if unused. Where a SMILES comes first, the peptide text is derived from it. Bridges are numbered along the chain shown (N, C = ends). [ ]: non-standard residue; d: D form. The star is where a group is joined. DOTA = O=C(O)CN1CCN(CC(=O)O)CCN(CC(=O)*)CCN(CC(=O)O)CC1; N(2-mercaptoethyl)Gly = O=C(CN(CCS[*:3])[*:1])[*:2]

Experiments:
SSTR3 = SSTR3 (Homo sapiens, UniProt P32745); assay: Radioligand binding, displacement of 125I-Tyr11-SRIF-14; parameters: host or cells: CHO (Chinese Hamster Ovary) cells, membrane preparation
How it was run: (§1)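 Assays ran at 25 °C in 25 mM HEPES pH 7.4 with 5 mM MgCl2, 1 mM CaCl2, 0.1% BSA and 1% DMSO. Filter-bound radioactivity gave IC50 by nonlinear least-squares regression.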

SSTR1 = SSTR1 (Homo sapiens, UniProt P30872); assay: as above; parameters: host or cells: CHO (Chinese Hamster Ovary) cells, membrane preparation
How it was run: as §1

SSTR2 = SSTR2 (Homo sapiens, UniProt P30874); assay: as above; parameters: host or cells: CHO (Chinese Hamster Ovary) cells, membrane preparation
How it was run: as §1

PDE3A (h) = target: T1, PDE3A (h) (Homo sapiens, UniProt Q14432); assay: Cerep off-target enzyme inhibition; type: biochemical; conditions: 1 micromolar; Enzymatic; read-out: % Activity: Inhibition of Control Specific Binding
T1 construct: Eurofins Cerep (contract assay)
Description: (§2) In this example, off-target interactions for SEQ ID NO.
(§3) The assays were performed by Eurofins Cerep (Celle 1'Evescault, France). Compound binding was calculated as a % inhibition of the binding of a radioactively labeled ligand specific for each target. Compound enzyme inhibition effect was calculated as a % inhibition of control enzyme activity. In each experiment and if applicable, the respective reference compound was tested concurrently with SEQ ID NO. 3, and the data were compared with historical values determined at Eurofins. The experiment was accepted in accordance with Eurofins validation Standard Operating Procedure. Results showing an inhibition (or stimulation for assays run in basal conditions) higher than 50% are considered to represent significant effects of the test compounds.

COX2(h) = target: T2, COX2(h) (Homo sapiens, UniProt P35354); assay: Cerep off-target enzyme inhibition; type: biochemical; conditions: 1 micromolar; Enzymatic; read-out: % Activity: Inhibition of Control Specific Binding
T2 construct: Eurofins Cerep (contract assay)
Description: as §2, §3

acetylcholinesterase (h) = target: T3, acetylcholinesterase (h) (Homo sapiens, UniProt P22303); assay: Cerep off-target enzyme inhibition; type: biochemical; conditions: 1 micromolar; Enzymatic; read-out: % Activity: Inhibition of Control Specific Binding
T3 construct: Eurofins Cerep (contract assay)
Description: as §2, §3

Lck kinase (h) = target: T4, Lck kinase (h) (Homo sapiens, UniProt P06239); assay: Cerep off-target enzyme inhibition; type: biochemical; conditions: 1 micromolar; Enzymatic; read-out: % Activity: Inhibition of Control Specific Binding
T4 construct: Eurofins Cerep (contract assay)
Description: as §2, §3

COX1(h) = target: T5, COX1(h) (Homo sapiens, UniProt P23219); assay: Cerep off-target enzyme inhibition; type: biochemical; conditions: 1 micromolar; Enzymatic; read-out: % Activity: Inhibition of Control Specific Binding
T5 construct: Eurofins Cerep (contract assay)
Description: as §2, §3

PDE4D2 (h) = target: T6, PDE4D2 (h) (Homo sapiens, UniProt Q08499); assay: Cerep off-target enzyme inhibition; type: biochemical; conditions: 1 micromolar; Enzymatic; read-out: % Activity: Inhibition of Control Specific Binding
T6 construct: Eurofins Cerep (contract assay)
Description: as §2, §3

[1] = system: 44 human cloned GPCRs and GPCR mediated cellular enzymatic activities; assay: Eurofins Cerep off-target safety pharmacology panel; type: binding; conditions: 1 micromolar
Description: as §2, §3
Results showing an inhibition (or stimulation) between 25% and 50% are indicative of weak to moderate effects (in most assays, they should be confirmed by further testing as they are within a range where more inter-experimental variability can occur). […]
Low to moderate negative values have no real meaning and are attributable to variability of the signal around the control level. […] The results are expressed as a percent of control specific binding measured specific binding

Na+ channel (site 2) = assay: Cerep off-target radioligand binding; parameters: species or system human; conditions: 1 micromolar; antagonist radioligand
Description: as §2, §3

[2] = system: Ca2+ channel (L, dihydropyridine site); assay: Cerep off-target radioligand binding; parameters: species or system human; conditions: 1 micromolar; antagonist radioligand
Description: as §2, §3

AR(h) = assay: Cerep off-target radioligand binding; parameters: species or system human; conditions: 1 micromolar; agonist radioligand
Description: as §2, §3

BZD (central) = assay: Cerep off-target radioligand binding; parameters: species or system human; conditions: 1 micromolar; agonist radioligand
Description: as §2, §3

MAO-A = target: T7, MAO-A (Rattus norvegicus, UniProt P21396); assay: Cerep off-target radioligand binding; parameters: species or system human; conditions: 1 micromolar; antagonist radioligand; read-out: % Activity: Inhibition of Control Specific Binding
T7 construct: Eurofins Cerep (assay service)
Description: as §2, §3

NMDA = assay: Cerep off-target radioligand binding; parameters: species or system human; conditions: 1 micromolar; antagonist radioligand
Description: as §2, §3

KV channel = assay: Cerep off-target radioligand binding; parameters: species or system human; conditions: 1 micromolar; antagonist radioligand
Description: as §2, §3

hSSTR-4 = target: T8, hSSTR-4 (Homo sapiens, UniProt P31391); assay: Radioligand binding, displacement of 125I-Tyr11-SRIF-14
T8 construct: host or cells: Chem-1 (Rat ChemiSCREEN) cells, membrane preparation
How it was run: as §1

SSTR5 = SSTR5 (Homo sapiens, UniProt P35346); assay: as above; parameters: host or cells: Chem-1 (Rat ChemiSCREEN) cells, membrane preparation
How it was run: as §1

SSTR5, sequence (P35346 whole entry): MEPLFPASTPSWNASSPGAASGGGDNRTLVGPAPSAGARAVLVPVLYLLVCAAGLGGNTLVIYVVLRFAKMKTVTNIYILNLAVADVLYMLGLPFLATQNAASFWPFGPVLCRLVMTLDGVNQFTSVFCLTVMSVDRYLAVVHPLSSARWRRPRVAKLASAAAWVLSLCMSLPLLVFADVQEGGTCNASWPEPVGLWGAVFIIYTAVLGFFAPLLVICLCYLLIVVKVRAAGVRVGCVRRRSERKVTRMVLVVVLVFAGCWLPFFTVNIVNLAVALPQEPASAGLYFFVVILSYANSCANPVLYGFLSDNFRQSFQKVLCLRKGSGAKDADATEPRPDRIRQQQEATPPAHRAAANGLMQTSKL
SSTR1, sequence (P30872 whole entry): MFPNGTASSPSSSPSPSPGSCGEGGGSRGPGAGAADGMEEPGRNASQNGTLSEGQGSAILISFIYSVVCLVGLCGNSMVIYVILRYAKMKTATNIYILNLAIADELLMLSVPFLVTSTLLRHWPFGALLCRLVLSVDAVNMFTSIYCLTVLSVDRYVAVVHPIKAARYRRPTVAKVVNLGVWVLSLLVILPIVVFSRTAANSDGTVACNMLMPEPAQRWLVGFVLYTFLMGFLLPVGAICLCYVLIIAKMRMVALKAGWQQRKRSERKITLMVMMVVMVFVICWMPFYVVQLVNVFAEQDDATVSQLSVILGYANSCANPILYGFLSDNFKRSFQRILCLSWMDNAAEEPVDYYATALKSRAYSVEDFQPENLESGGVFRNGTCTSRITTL
SSTR2, sequence (P30874 whole entry): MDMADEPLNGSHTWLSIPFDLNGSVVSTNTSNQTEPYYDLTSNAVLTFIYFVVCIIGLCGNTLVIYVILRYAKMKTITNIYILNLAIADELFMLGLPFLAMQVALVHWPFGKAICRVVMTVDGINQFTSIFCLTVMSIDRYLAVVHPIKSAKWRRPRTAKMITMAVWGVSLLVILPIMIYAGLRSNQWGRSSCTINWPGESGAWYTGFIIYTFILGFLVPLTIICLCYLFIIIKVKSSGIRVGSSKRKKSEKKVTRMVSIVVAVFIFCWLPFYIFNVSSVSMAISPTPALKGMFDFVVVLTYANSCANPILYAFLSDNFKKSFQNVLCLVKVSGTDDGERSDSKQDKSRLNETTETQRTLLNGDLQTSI
SSTR3, sequence (P32745 whole entry): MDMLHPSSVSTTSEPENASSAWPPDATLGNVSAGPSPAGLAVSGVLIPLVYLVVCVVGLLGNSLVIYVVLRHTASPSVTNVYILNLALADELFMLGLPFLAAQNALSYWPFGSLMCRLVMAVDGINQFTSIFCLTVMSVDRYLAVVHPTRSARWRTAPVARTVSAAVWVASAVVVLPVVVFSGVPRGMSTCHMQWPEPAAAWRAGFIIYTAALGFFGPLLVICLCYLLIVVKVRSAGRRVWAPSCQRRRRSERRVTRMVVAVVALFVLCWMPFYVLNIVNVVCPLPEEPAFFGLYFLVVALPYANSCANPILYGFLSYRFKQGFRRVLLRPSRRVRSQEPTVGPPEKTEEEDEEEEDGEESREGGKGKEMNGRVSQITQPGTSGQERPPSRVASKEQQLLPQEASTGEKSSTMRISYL
T8 sequence (P31391 whole entry): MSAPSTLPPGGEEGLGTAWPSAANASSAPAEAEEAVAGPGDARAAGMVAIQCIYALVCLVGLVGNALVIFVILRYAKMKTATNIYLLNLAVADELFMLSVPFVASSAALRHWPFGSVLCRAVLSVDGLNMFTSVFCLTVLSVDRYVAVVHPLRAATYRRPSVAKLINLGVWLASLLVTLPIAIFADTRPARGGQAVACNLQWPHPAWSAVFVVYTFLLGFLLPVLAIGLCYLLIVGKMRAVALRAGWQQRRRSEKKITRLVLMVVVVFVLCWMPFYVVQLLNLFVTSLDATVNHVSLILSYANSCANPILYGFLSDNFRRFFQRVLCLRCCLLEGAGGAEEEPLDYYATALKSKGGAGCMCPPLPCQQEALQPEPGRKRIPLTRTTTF
T2 sequence (P35354 18-604): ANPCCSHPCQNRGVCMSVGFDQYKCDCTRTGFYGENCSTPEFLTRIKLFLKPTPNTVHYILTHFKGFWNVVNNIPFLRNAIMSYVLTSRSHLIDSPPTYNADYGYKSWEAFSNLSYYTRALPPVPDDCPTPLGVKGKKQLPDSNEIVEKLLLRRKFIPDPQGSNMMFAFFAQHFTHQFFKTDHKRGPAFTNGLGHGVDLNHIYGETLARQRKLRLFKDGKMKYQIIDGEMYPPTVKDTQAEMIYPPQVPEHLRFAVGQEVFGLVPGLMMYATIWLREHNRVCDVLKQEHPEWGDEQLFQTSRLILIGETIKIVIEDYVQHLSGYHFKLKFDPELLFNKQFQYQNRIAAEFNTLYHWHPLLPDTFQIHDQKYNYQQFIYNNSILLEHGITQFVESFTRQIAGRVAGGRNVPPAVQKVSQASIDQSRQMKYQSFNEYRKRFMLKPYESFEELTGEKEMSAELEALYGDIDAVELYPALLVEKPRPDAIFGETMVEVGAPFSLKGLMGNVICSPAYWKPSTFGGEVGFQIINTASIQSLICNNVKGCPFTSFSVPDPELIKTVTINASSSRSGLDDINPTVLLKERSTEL
T4 sequence (P06239 whole entry): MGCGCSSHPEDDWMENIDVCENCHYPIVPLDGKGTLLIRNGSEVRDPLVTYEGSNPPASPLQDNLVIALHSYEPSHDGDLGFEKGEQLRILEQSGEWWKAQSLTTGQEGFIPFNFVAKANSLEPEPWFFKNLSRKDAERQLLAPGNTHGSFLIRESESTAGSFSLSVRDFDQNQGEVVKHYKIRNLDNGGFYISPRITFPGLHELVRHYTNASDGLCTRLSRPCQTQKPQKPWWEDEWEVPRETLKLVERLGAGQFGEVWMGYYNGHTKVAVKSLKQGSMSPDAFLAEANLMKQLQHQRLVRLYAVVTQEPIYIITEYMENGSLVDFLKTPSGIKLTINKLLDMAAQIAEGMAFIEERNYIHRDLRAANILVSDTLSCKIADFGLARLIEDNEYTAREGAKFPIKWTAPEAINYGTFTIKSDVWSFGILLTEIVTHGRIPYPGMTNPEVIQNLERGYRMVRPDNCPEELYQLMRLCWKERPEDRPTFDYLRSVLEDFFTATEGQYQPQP
T5 sequence (P23219 24-599): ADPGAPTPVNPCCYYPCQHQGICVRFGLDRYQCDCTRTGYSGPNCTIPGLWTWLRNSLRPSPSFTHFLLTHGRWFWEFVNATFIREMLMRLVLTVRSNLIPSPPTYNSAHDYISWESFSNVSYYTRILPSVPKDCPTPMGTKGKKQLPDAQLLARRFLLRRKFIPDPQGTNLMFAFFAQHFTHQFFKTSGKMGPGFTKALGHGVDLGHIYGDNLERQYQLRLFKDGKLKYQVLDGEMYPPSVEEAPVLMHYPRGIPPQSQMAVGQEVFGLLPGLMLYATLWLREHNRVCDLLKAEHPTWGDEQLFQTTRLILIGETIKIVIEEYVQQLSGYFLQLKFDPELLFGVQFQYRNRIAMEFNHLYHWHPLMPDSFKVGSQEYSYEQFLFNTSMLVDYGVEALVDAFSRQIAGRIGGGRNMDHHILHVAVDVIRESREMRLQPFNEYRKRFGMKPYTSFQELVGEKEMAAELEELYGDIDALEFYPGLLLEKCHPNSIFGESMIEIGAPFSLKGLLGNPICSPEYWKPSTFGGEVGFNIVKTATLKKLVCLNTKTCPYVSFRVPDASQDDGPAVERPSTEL
T1 sequence (Q14432 whole entry): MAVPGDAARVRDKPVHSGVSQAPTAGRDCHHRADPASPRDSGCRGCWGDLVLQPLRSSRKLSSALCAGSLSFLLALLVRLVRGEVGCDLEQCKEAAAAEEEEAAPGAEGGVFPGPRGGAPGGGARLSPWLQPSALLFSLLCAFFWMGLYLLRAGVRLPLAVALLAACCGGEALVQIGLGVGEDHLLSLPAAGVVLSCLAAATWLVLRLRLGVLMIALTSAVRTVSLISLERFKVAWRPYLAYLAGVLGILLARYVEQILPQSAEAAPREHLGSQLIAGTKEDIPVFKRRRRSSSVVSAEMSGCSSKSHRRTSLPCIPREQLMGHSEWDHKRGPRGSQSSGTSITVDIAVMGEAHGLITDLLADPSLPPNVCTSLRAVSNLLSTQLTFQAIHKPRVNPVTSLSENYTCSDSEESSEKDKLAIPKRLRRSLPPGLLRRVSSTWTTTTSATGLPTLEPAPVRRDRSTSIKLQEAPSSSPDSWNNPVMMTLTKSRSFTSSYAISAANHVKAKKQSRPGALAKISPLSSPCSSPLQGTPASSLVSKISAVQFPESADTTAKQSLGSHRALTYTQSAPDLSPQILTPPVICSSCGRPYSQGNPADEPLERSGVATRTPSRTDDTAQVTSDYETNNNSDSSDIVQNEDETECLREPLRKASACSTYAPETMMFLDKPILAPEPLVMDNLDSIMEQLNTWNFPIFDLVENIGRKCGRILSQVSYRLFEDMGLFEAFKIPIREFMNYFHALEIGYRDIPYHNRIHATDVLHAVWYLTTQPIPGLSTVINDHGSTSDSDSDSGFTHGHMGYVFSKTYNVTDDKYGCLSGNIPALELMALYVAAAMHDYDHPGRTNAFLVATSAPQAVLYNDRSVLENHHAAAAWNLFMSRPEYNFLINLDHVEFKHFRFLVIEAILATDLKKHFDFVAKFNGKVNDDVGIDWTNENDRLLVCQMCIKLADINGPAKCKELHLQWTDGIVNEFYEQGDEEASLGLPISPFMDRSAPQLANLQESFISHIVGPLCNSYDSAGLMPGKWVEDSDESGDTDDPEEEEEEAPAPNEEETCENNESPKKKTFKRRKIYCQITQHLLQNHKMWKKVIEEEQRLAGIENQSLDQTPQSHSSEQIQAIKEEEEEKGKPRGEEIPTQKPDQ

Q: How did the IC50 (SSTR3) turn out when `C[C@@H](O)[C@@H]1NC(=O)[C@H](CCCCN)NC(=O)[C@@H](Cc2c[nH]c3ccccc23)NC(=O)[C@H](Cc2ccccc2)NC(=O)[C@@H](NC(=O)[C@H](CCCNC(=N)N)NC(=O)[C@@H](Cc2ccccc2)NC(=O)CN2CCN(CC(=O)O)CCN(CC(=O)O)CCN(CC(=O)O)CC2)CSSCCN(CC(N)=O)C(=O)[C@H](Cc2ccccc2)NC1=O` [SEQ ID NO: 3, DOTA-D-Phe^1-Arg^2-Cys^3-Phe^4-D-Trp^5-Lys^6-Thr^7-Phe^8-NTEG^9-NH2 cyclo 3-9] ({DOTA}-[dF]RCF[dW]KTF[N(2-mercaptoethyl)Gly]-NH2; disulfide 3-9) was run?
A: Its IC50 is 0.83 nM.

Q: And the Ki (SSTR3)?
A: Its Ki is 0.28 nM.

Q: And the “affinity and selectivity to SSTR3 (in words)” value (SSTR3; binding data, listed as DOTA conjugate of SEQ ID NO: 1)?
A: Its value is “did not interfere with the binding affinity and selectivity of SEQ ID NO: 1”.

Q: And the “Hill coefficient (nH)” value (SSTR3; hSSTR-3)?
A: Its value is 1.15.

Q: And the IC50 (SSTR1)?
A: Its IC50 is 310 nM.

Q: And the Ki (SSTR1)?
A: The Ki was 260 nM.

Q: And the “Hill coefficient (nH)” value (SSTR1; hSSTR-1)?
A: Its value is 0.86.

Q: What about the IC50 (SSTR2) of the same compound?
A: The IC50 was 590 nM.

Q: What about the Ki (SSTR2) of the same compound?
A: The Ki was 310 nM.

Q: And the “Hill coefficient (nH)” value (SSTR2; hSSTR-2)?
A: The value was 1.62.

Q: What about the inhibition at 1 µM (PDE3A (h)) of the same compound?
A: Its inhibition at 1 µM is 0%.

Q: What about the inhibition at 1 µM (COX2(h)) of the same compound?
A: The inhibition at 1 µM was 18%.

Q: And the inhibition at 1 µM (acetylcholinesterase (h))?
A: The inhibition at 1 µM was 6%.

Q: And the inhibition at 1 µM (Lck kinase (h))?
A: Its inhibition at 1 µM is -4%.

Q: What about the inhibition at 1 µM (COX1(h)) of the same compound?
A: Its inhibition at 1 µM is 9%.

Q: What about the inhibition at 1 µM (PDE4D2 (h)) of the same compound?
A: Its inhibition at 1 µM is -2%.

Q: What about the “off-target interactions with opiate receptors” value [1] of the same compound?
A: The value was “not indicated”.

Q: What about the “off-target interactions, safety pharmacology panel (in words)” value [1] of the same compound?
A: Its value is “no interaction with human cloned GPCRs of clinical significance”.

Q: What about the “% Activity: Inhibition of Control Specific Binding” value (“% Activity: Inhibition” below) (Na+ channel (site 2)) of the same compound?
A: The value was 3%.

Q: What about the “% Activity: Inhibition” value [2] of the same compound?
A: The value was −10%.

Q: And the “% Activity: Inhibition” value (AR(h))?
A: Its value is −9%.

Q: And the “% Activity: Inhibition” value (BZD (central))?
A: The value was −7%.

Q: And the inhibition at 1 µM (MAO-A)?
A: The inhibition at 1 µM was 3%.

Q: And the “% Activity: Inhibition” value (NMDA)?
A: The value was 10%.

Q: What about the “% Activity: Inhibition” value (KV channel) of the same compound?
A: Its value is −5%.

Q: And the IC50 (hSSTR-4)?
A: The IC50 was greater than 1000 nM.

Q: And the Ki (hSSTR-4)?
A: The Ki was greater than 1000 nM.

Q: And the “Hill coefficient (nH)” value (hSSTR-4; hSSTR-4)?
A: The value was 1.14.

Q: What about the IC50 (SSTR5) of the same compound?
A: The IC50 was greater than 1000 nM.

Q: What about the Ki (SSTR5) of the same compound?
A: Its Ki is 660 nM.

Q: What about the “Hill coefficient (nH)” value (SSTR5; hSSTR-5) of the same compound?
A: The value was 1.57.
